Source: the NIST ThermoML archive (doi:10.1016/j.fluid.2011.03.012)
± gives the expanded uncertainty stated by the source.

How the values were obtained:
[1] = Molar enthalpy of transition or fusion; conditions: Crystal; DSC
[2] = Crystal; DTA

Cc1cnc(NC(=O)C2=C(O)c3ccccc3S(=O)(=O)N2C)s1 [meloxicam]
Molar enthalpy of transition or fusion [1]: 10.5 ± 0.287 kcal/mol
Normal melting temperature [2]: 263.6 ± 1.4 °C
